# Measurements taken from patent US5380740A, “Anti-inflammatory compounds, compositions and method of use thereof” (G. D. Searle & Co., priority 1993, dated 1995).
# What was measured:
# Human neutrophils [1] = experiment: Modified Boyden Chamber Chemotaxis (LTB4-induced); assay type: cell-based; details: 3×10^-8 M LTB4; for Relative Potency, Chemotaxis: potency relative to compound 1 defined as 1.0
# Procedure: Human neutrophils were isolated from citrated peripheral blood using standard techniques of dextran sedimentation, followed by centrifugation on Histopaque® sterile solution (Sigma) or Ficoll-paque® (Pharmacia) and hypotonic lysis of erythrocytes. A final cell suspension of 3.4×10^6 neutrophils/ml of HEPES-buffered Hanks balanced salt solution (HBSS, pH 7.3) was added to the upper well (0.8 ml) of a modified Boyden chamber (blind well). […] Percent inhibition was calculated from cell counts corrected for random migration by subtracting the mean of the HBSS control.
# Human neutrophils [2] = experiment: Human Neutrophil Degranulation Assay (LTB4-induced myeloperoxidase release); assay type: cell-based; details: LTB4 5×10^-8 M; for Relative Potency, Degranulation: potency relative to compound 1 defined as 1.0
# Procedure: Neutrophils were purified from venous blood of normal human donors using standard techniques of dextran sedimentation, centrifugation on Ficoll-paque® (Pharmacia) or Histopaque® sterile solution (Sigma) and hypotonic lysis of erythrocytes (Boyum, A., Isolation of Leukocytes from Human Blood: Further Observations. Stand, J. Lab. Clin. Invest., 21 (Suppl. 97): 31, 1968). The purity of isolated neutrophils was >95%.
# Neutrophil degranulation was determined by measuring the release of myeloperoxidase activity into the incubation medium. Neutrophils (3×10^6) in 1 ml HBSS solution were preincubated with cytochalasin B(5 μg) at 37° C. for 5 minutes, followed by preincubation with test compounds for 7 minutes. Neutrophils were then incubated for 2 to 20 minutes with LTB4 (5×10^-8 M) to induce degranulation. Following incubation, samples were centrifuged and myeloperoxidase was extracted from the cell pellets by sonication in phosphate buffer containing 0.4% Triton X-100. Triton X-100 was also added to the supernatants to a concentration of 0.4%. The supernatants and the pellet--extracts were then assayed spectrophotometrically for myeloperoxidase activity by determining the rate of decomposition of H2 O2 with o-dianisidine as hydrogen donor as described by Renlund, et al. (Renlund, D. G., MacFarlane, J. L., Christensen, R. D., Lynch, R. E., and Rothstein, G., A Quantitative and sensitive Method for Measurement of Myeloperoxidase, Clinical Research 28:75A, 1980). Myeloperoxidase activity released into the supernatant was expressed as the percent of the average total activity (pellet plus supernatant).
# LTB4 receptor = target: T1, LTB4 receptor (Homo sapiens, UniProt Q15722); experiment: LTB4 Receptor Binding Assay; details: potency relative to compound 1 defined as 1.0; (3H) LTB4 0.6×10^-9 M, human neutrophils
# T1 construct: endogenous in cells; host or cells: neutrophils purified from venous blood of normal human donors (purity >95%)
# T1 sequence (Q15722 whole entry): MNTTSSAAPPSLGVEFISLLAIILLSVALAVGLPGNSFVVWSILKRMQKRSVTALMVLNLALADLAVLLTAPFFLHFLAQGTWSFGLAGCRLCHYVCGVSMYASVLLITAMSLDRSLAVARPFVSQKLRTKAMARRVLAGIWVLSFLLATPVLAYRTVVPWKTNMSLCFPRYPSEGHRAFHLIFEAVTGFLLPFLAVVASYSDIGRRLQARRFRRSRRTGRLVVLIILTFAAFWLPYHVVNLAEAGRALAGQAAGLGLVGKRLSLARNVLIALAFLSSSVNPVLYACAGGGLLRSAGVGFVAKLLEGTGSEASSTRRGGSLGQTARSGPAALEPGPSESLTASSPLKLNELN
# Procedure: Neutrophils (4-6×10^6) in 1 ml Hanks' balanced salt solution containing 10 mM HEPES buffer (HBSS), pH 7.4 and 30 μM nordihydroguaiaretic acid were incubated with 0.6×10^-9 M (3H) LTB4 in the presence or absence of test compounds. The incubation was carried out at 0° C. for 45 minutes and terminated by adding 5 ml of ice-cold HBSS followed by rapid filtration of incubation mixture under vacuum through GF/C glass fiber filters. The filters were further washed with 10 ml HBSS and radioactivity was determined. Specific binding was defined as the difference between total binding and nonspecific binding which was not displaced by 10^-7 M unlabeled LTB4. All data refer to specific binding.
SMILES,"Relative Potency, Chemotaxis (Human neutrophils [1])","Relative Potency, Degranulation (Human neutrophils [2])","Relative Potency, LTB4 Receptor Binding (LTB4 receptor)","IC50 (Human neutrophils [1]; Homo sapiens, Neutrophil) [µM]","IC50 (Human neutrophils [2]; Homo sapiens, Neutrophil) [µM]"
CCCc1c(OCCCOc2ccc(C(C)=O)c(OC)c2CC2CC2)ccc2c1OC(c1nnn[nH]1)CC2 (centres unmarked),22.5,75,2,,
"CCCc1c(OCCCOc2ccc(C(C)=O)c(OC)c2CCC)ccc2c1OC(C(=O)O)CC2 (centres unmarked) [Compound 1, 7-[3,(4-acetyl-3-methoxy-2-propylphenoxy)propoxy]-3,4-dihydro-8-propyl-2H-1-benzopyran-2-carboxylic acid, reference compound]",,,,1.8,1.5
C=CCc1c(OCCCOc2ccc3c(c2CCC)OC(c2nnn[nH]2)CC3)ccc(C(C)=O)c1OC (centres unmarked),9,38,0.8,,
